Measurements as given in PubChem BioAssay AID248 (DTP/NCI, 2004).
Several values for one entry are separate records, joined by “and”; a condition that tells them apart may be missing. Equal entries are not always repeated. Inconclusive results and toxic doses are left out. Rule as the data show it: active = T/C of 150% or more; inactive = T/C below 125%.

Test system: L1210 leukemia ip in BDF1 mice, survival T/C
Experiment: NCI In Vivo Anticancer Drug Screen. Data for tumor model L1210 Leukemia (intraperitoneal) in B6D2F1 (BDF1) mice
Settings: endpoint: mean survival time, higher = longer survival
Procedure, shortened: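 Survival endpoint. Drug-treated group vs vehicle group, expressed as T divided by C. Tumor passaged by transplantation.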

[1] = dose: 25.0 mg/kg/injection, schedule: Q01DX001 (ip), vehicle: Klucel (hydroxypropylcellulose) (HPC)
[2] = dose: 50.0 mg/kg/injection, schedule: Q01DX001 (ip), vehicle: Klucel (hydroxypropylcellulose) (HPC)
[3] = dose: 100.0 mg/kg/injection, schedule: Q01DX001 (ip), vehicle: Klucel (hydroxypropylcellulose) (HPC)
[4] = dose: 100.0 mg/kg/injection, schedule: Q01DX001 (ip), vehicle: saline
[5] = dose: 100.0 mg/kg/injection, schedule: Q04DX002 (ip), vehicle: saline
[6] = dose: 100.0 mg/kg/injection, schedule: Q01DX001 (ip), vehicle: carboxymethylcellulose (CMC)
[7] = dose: 200.0 mg/kg/injection, schedule: Q01DX001 (ip), vehicle: carboxymethylcellulose (CMC)
[8] = dose: 400.0 mg/kg/injection, schedule: Q01DX001 (ip), vehicle: carboxymethylcellulose (CMC)
[9] = dose: 100.0 mg/kg/injection, schedule: Q04DX003 (ip), vehicle: saline
[10] = dose: 200.0 mg/kg/injection, schedule: Q04DX003 (ip), vehicle: saline
[11] = dose: 400.0 mg/kg/injection, schedule: Q04DX003 (ip), vehicle: saline
[12] = dose: 100.0 mg/kg/injection, schedule: Q04DX003 (ip), vehicle: saline with Tween-80
[13] = dose: 200.0 mg/kg/injection, schedule: Q04DX003 (ip), vehicle: saline with Tween-80
[14] = dose: 400.0 mg/kg/injection, schedule: Q04DX003 (ip), vehicle: saline with Tween-80
[15] = dose: 100.0 mg/kg/injection, schedule: Q04DX002 (ip), vehicle: Klucel (hydroxypropylcellulose) (HPC)
[16] = dose: 200.0 mg/kg/injection, schedule: Q04DX002 (ip), vehicle: Klucel (hydroxypropylcellulose) (HPC)
[17] = dose: 100.0 mg/kg/injection, schedule: Q01DX009 (ip), vehicle: saline with Tween-80
[18] = dose: 200.0 mg/kg/injection, schedule: Q01DX009 (ip), vehicle: saline with Tween-80
[19] = dose: 100.0 mg/kg/injection, schedule: Q01DX009 (ip), vehicle: Klucel (hydroxypropylcellulose) (HPC)
[20] = dose: 200.0 mg/kg/injection, schedule: Q01DX009 (ip), vehicle: Klucel (hydroxypropylcellulose) (HPC)
[21] = dose: 200.0 mg/kg/injection, schedule: Q01DX001 (ip), vehicle: saline
[22] = dose: 400.0 mg/kg/injection, schedule: Q01DX001 (ip), vehicle: saline
[23] = dose: 100.0 mg/kg/injection, schedule: Q04DX003 (ip), vehicle: Klucel (hydroxypropylcellulose) (HPC)
[24] = dose: 200.0 mg/kg/injection, schedule: Q04DX003 (ip), vehicle: Klucel (hydroxypropylcellulose) (HPC)
[25] = dose: 400.0 mg/kg/injection, schedule: Q01DX009 (ip), vehicle: Klucel (hydroxypropylcellulose) (HPC)
[26] = dose: 400.0 mg/kg/injection, schedule: Q04DX003 (ip), vehicle: Klucel (hydroxypropylcellulose) (HPC)

Measured: T/C

CC(N)C(=O)NC(C)C(=O)O (configuration not stated)
inactive: [1] 97 % of control | dose: 25.0 mg/kg/injection, schedule: Q01DX001 (ip), vehicle: saline 102 % of control | dose: 25.0 mg/kg/injection, schedule: Q04DX002 (ip), vehicle: saline 102 % of control | [2] 97 % of control | dose: 50.0 mg/kg/injection, schedule: Q01DX001 (ip), vehicle: saline 97 % of control | dose: 50.0 mg/kg/injection, schedule: Q04DX002 (ip), vehicle: saline 96 % of control | [3] 97 % of control | [4] 93 % of control | [5] 102 % of control

COc1ccc(/C(C#N)=C2\OC(=O)c3ccccc32)cc1OC
inactive: [6] 89 % of control | [7] 94 % of control | [8] 89 % of control

CNc1nn[nH]n1
inactive: [9] 100 % of control | [10] 93 % of control | [11] 89 % of control

C#CCOC(=O)C(Cl)(Cl)Cl
inactive: dose: 100.0 mg/kg/injection, schedule: Q04DX002 (ip), vehicle: other 107 % of control | dose: 200.0 mg/kg/injection, schedule: Q04DX002 (ip), vehicle: other 96 % of control

Cc1cc(S(=O)(=O)O)c(N)cc1Cl
inactive: [12] 99 % of control | [13] 97 % of control | [14] 100 % of control

CCCC(O)c1ccc(OC)c(OC)c1 (configuration not stated)
inactive: [15] 97 % of control | [16] 102 % of control

CC(=O)OCC(C)CCC(=O)C(C)C1C(=O)CC2C3CC=C4CC(OC(C)=O)CCC4(C)C3CCC21C (configuration not stated)
inactive: [17] 96 % of control | [18] 97 % of control | dose: 400.0 mg/kg/injection, schedule: Q01DX009 (ip), vehicle: saline with Tween-80 96 % of control

CCc1ccc(C(O)C(=O)O)cc1 (configuration not stated)
inactive: dose: 75.0 mg/kg/injection, schedule: Q01DX001 (ip), vehicle: acetone 90 % of control | dose: 150.0 mg/kg/injection, schedule: Q01DX001 (ip), vehicle: acetone 94 % of control

O=C1C=C(NNc2ccccc2)CCC1
inactive: dose: 75.0 mg/kg/injection, schedule: Q01DX001 (ip), vehicle: steriod suspending solution 92 % of control | dose: 150.0 mg/kg/injection, schedule: Q01DX001 (ip), vehicle: steriod suspending solution 95 % of control | dose: 300.0 mg/kg/injection, schedule: Q01DX001 (ip), vehicle: steriod suspending solution 92 % of control

CC(=O)OCC(=O)[C@@]1(O)CC[C@H]2[C@@H]3C[C@H](C)C4=CC(=O)C=C[C@]4(C)[C@@]3(F)[C@@H](O)C[C@@]21C
inactive: dose: 100.0 mg/kg/injection, schedule: Q01DX009 (ip), vehicle: saline 103 % of control | [9] 94 % of control | dose: 200.0 mg/kg/injection, schedule: Q01DX009 (ip), vehicle: saline 92 % of control | [10] 111 % of control | dose: 400.0 mg/kg/injection, schedule: Q01DX009 (ip), vehicle: saline 108 % of control | [11] 103 % of control

Nc1nc2c(ncn2-c2cccc(NC(=O)Nc3cc(S(=O)(=O)F)ccc3Cl)c2)c(=O)[nH]1
inactive: dose: 12.5 mg/kg/injection, schedule: Q01DX001 (ip), vehicle: Klucel (hydroxypropylcellulose) (HPC) 87 % of control | [1] 96 % of control | [2] 89 % of control

C#CC1(NC(c2cc(Cl)cc(Cl)c2O)P(=O)(c2ccccc2)c2ccccc2)CCCCC1 (configuration not stated)
inactive: [19] 94 % of control | [20] 102 % of control

N#Cc1nc2c3ccccc3c3ccccc3c2nc1C#N
inactive: dose: 75.0 mg/kg/injection, schedule: Q01DX009 (ip), vehicle: other 90 % of control | dose: 300.0 mg/kg/injection, schedule: Q01DX009 (ip), vehicle: other 104 % of control

CCN(CC)C(=O)Nc1cccc(OC(=O)N(C)C)c1
inactive: [17] 87 % of control | [18] 89 % of control

Nc1ccc2oc3cccc(N)c3c(=O)c2c1
inactive: [4] 94 % of control | [21] 96 % of control | [22] 96 % of control

FC(F)C(F)(F)C(F)(F)C(F)(F)C(F)(F)C(F)(F)C(F)(F)F
inactive: [4] 97 % of control | [21] 100 % of control | [22] 95 % of control

CC(=O)Nc1ccc(O)c2ccccc12
inactive: [15] 92 % of control | [16] 89 % of control | dose: 400.0 mg/kg/injection, schedule: Q04DX002 (ip), vehicle: Klucel (hydroxypropylcellulose) (HPC) 99 % of control

COC1OC(CN(CCOS(C)(=O)=O)CCOS(C)(=O)=O)C2OC(C)(C)OC12 (configuration not stated)
inactive: [2] 114 % of control | [3] 108 % of control | dose: 200.0 mg/kg/injection, schedule: Q01DX001 (ip), vehicle: Klucel (hydroxypropylcellulose) (HPC) 107 % of control | dose: 400.0 mg/kg/injection, schedule: Q01DX001 (ip), vehicle: Klucel (hydroxypropylcellulose) (HPC) 105 % of control

C#CCOCCC#N
inactive: [5] 101 % of control | dose: 200.0 mg/kg/injection, schedule: Q04DX002 (ip), vehicle: saline 94 % of control

COC(=O)C1=C(C)NC(=O)NC1c1ccc(N(CCCl)CCCl)c(OC)c1 (configuration not stated)
inactive: dose: 3.0 mg/kg/injection, schedule: Q01DX009 (ip), vehicle: Klucel (hydroxypropylcellulose) (HPC) 115 % of control | dose: 6.0 mg/kg/injection, schedule: Q01DX009 (ip), vehicle: Klucel (hydroxypropylcellulose) (HPC) 117 % of control | dose: 12.0 mg/kg/injection, schedule: Q01DX009 (ip), vehicle: Klucel (hydroxypropylcellulose) (HPC) 112 % of control | [3] 109 % of control

CC(O)C[As](=O)(O)c1ccc(Cl)cc1 (configuration not stated)
inactive: dose: 25.0 mg/kg/injection, schedule: Q04DX003 (ip), vehicle: saline with Tween-80 94 % of control

CCOc1ccccc1NC1=C(OC)C(=O)C(Nc2ccccc2OCC)=C(OC)C1=O
inactive: dose: 50.0 mg/kg/injection, schedule: Q01DX001 (ip), vehicle: carboxymethylcellulose (CMC) 97 % of control | [6] 103 % of control | [19] 95 % of control | [23] 98 % of control | [7] 101 % of control | [24] 90 % of control | [8] 113 % of control | [25] 90 % of control | [26] 101 % of control

c1ccc(C(C2=NCCN2)c2ccccc2)cc1
inactive: dose: 25.0 mg/kg/injection, schedule: Q04DX003 (ip), vehicle: Klucel (hydroxypropylcellulose) (HPC) 101 % of control | dose: 50.0 mg/kg/injection, schedule: Q01DX009 (ip), vehicle: Klucel (hydroxypropylcellulose) (HPC) 102 % of control | dose: 50.0 mg/kg/injection, schedule: Q04DX003 (ip), vehicle: Klucel (hydroxypropylcellulose) (HPC) 106 % of control | [19] 91 % of control | [23] 101 % of control and 103 % of control

C[N+](C)(CCN1C(=O)c2ccc3c4c(ccc(c24)C1=O)C(=O)N(CC[N+](C)(C)Cc1ccccc1)C3=O)Cc1ccccc1
inactive: dose: 0.1 mg/kg/injection, schedule: Q01DX001 (ip), vehicle: saline 105 % of control | dose: 0.2 mg/kg/injection, schedule: Q01DX001 (ip), vehicle: saline 101 % of control | dose: 0.4 mg/kg/injection, schedule: Q01DX001 (ip), vehicle: saline 110 % of control | dose: 0.78 mg/kg/injection, schedule: Q01DX001 (ip), vehicle: saline 106 % of control

C/C=C(\C)C(=O)OC1CC(C)=C2C(=O)C=C(C)C2C2OC(=O)C(C)C12 (configuration not stated)
inactive: [23] 98 % of control | [24] 102 % of control | [26] 96 % of control

C#CCCOC(=O)Nc1ccccc1
inactive: [19] 96 % of control | [20] 96 % of control | [25] 102 % of control

Cc1cc(CC(O)(C(F)(F)F)C(F)(F)F)c(C#N)c(=O)[nH]1
inactive: [12] 97 % of control | [13] 97 % of control | [14] 97 % of control
